Laboratory results taken from patent US11208432B2, “Inhibitors of glucocorticoid receptor” (ORIC Pharmaceuticals, Inc., priority 2015, dated 2021).

Test system: AR
Test: In Vitro AR Agonism Assay (LNAR reporter cell line)
Assay type: cell-based
Conditions: for Relative Maximum Response to Mifepristone: LNAR reporter cells, RPMI + 10% CSS, 18-24 hrs, maximum response of Mifepristone set to 1
Method: In Vitro AR Agonism Assay
The AR agonism assay was done in the LNAR reporter cell line which has overexpressed AR and 4×ARE-Luc genes. This cell line is sensitive to even minor partial AR agonism activity in hormone-deprived media (CSS). The assays were done in RPMI (without phenol red)+10% CSS using 6000 LNAR cells/well in 384-well plates and compounds were incubated with cells in […] incubator for 18-24 hrs. OneGlo reagent (25 uL/well) was added and plates were read with luminometer within 3 minutes.
To gauge the AR partial agonism activity, Mifepristone is included as a standard in the assay. AR agonism assay results are quantified by determining the ratio of the maximum response of individual compounds to the maximum response of Mifepristone (arbitrarily set to 1). Values of Table 4 are reported as Relative Maximum Response to Mifepristone. This general trend of AR agonism was shown for the class of compounds described herein.

Compound	Relative Maximum Response to Mifepristone	partial AR agonism (in concentrations as low as 10 nM)
CC#C[C@]1(O)CC[C@H]2[C@@H]3CCC4=CC(=O)CC[C@@H]4[C@H]3[C@@H](c3ccc(N(C)C)cc3)C[C@@]21C [Compound 3]	B (B: >0.4)	–
COc1ccc([C@H]2C[C@@]3(C)[C@@H](CC[C@@]3(O)C#CC3CC3)[C@@H]3CCC4=CC(=O)CC[C@]4(C)C23)cc1 (stereo partly drawn) [Compound 6]	A (A: ≤0.4)	–
CC(C)C#C[C@]1(O)CC[C@H]2[C@@H]3CCC4=CC(=O)CC[C@]4(C)C3[C@@H](c3ccc(N(C)C)cc3)C[C@@]21C (stereo partly drawn) [Compound 13, (8S,10R,11S,13S,14S,17S)-11-(4-(Dimethylamino)phenyl)-17-hydroxy-10,13-dimethyl-17-(3-methylbut-1-yn-1-yl)-1,2,6,7,8,9,10,11,12,13,14,15,16,17-tetradecahydro-3H-cyclopenta[a]phenanthren-3-one]	A (A: ≤0.4)	–
COC(C)(C)C#C[C@]1(O)CC[C@H]2[C@@H]3CCC4=CC(=O)CC[C@@H]4[C@H]3[C@@H](c3ccc(N(C)C)cc3)C[C@@]21C [Compound 10, (8R,9S,10R,11S,13S,14S,17S)-11-(4-(Dimethylamino)phenyl)-17-hydroxy-17-(3-methoxy-3-methylbut-1-yn-1-yl)-13-methyl-1,2,6,7,8,9,10,11,12,13,14,15,16,17-tetradecahydro-3H-cyclopenta[a]phenanthren-3-one]	A (A: ≤0.4)	–
CN(C)c1ccc([C@H]2C[C@@]3(C)[C@@H](CC[C@@]3(O)C#CC(C)(C)C)[C@@H]3CCC4=CC(=O)CC[C@@H]4[C@H]32)cc1 [Compound 7, (8R,9S,10R,11S,13S,14S,17S)-11-(4-(dimethylamino)phenyl)-17-(3,3-dimethylbut-1-yn-1-yl)-17-hydroxy-13-methyl-1,2,6,7,8,9,10,11,12,13,14,15,16,17-tetradecahydro-3H-cyclopenta[a]phenanthren-3-one]	A (A: ≤0.4)	–
CC#C[C@]1(O)CC[C@H]2[C@@H]3CCC4=CC(=O)CCC4=C3[C@@H](c3ccc(N(C)C)cc3)C[C@@]21C [Mifepristone, reference compound]	–	strong partial AR agonism
